Laboratory results reported in patent US20140349941A1, “AROMATIC-CATIONIC PEPTIDES AND USES OF SAME” (Cornell University, priority 2011, published 2014).
“Also recorded” adds a separate entry of the source.

Key:
[1] = Antioxidant ability: neutralizing reactive species, lipid peroxidation; assay type: biochemical
[2] = Animal models of ischemia-reperfusion injury, neurodegenerative diseases and metabolic syndrome; assay type: in vivo; conditions: neurodegenerative diseases, metabolic syndrome
[3] = system: isolated rat renal kidney mitochondria; assay: Fluorescence quenching of peptide by mitochondria or mitoplasts; assay type: binding
Description: (§1) Maximal fluorescence emission of SS-19 was monitored at 420 nm following excitation at 320 nm using Hitachi F-4500 fluorescence spectrophotometer.
(§2) The quenching by cytochrome c was not displaced by sequential additions of bovine serum albumin (FIG. 22C, A+arrows) (500 μg/ml).

cytochrome c = assay: Fluorescence quenching of peptide by cytochrome c; assay type: binding
Description: as §1, §2
Fluorescence emission of SS-19 (10 μM) was monitored in real time (Ex/Em=320 nm/420 nm) using Hitachi F-4500 fluorescence spectrophotometer.

cytochrome c-CL complex [4] = target: T1, cytochrome c-CL complex (Homo sapiens, UniProt P99999); assay: Fluorescence spectroscopy of peptide with cytochrome c in the presence of CL; assay type: binding; conditions: peptide 10 μM, CL 50 μg/ml
T1 sequence (P99999 2-105 limits assumed, species assumed, one chain of several): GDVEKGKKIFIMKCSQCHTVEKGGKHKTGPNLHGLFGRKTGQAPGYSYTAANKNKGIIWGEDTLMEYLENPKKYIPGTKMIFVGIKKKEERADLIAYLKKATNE
Description: Fluorescence emission of SS-19 (10 μM) was monitored in real time (Ex/Em=320 nm/420 nm) using Hitachi F-4500 fluorescence spectrophotometer. […] CL may potentiate the interaction between SS-19 and cytochrome c by serving as an anionic platform for the two cationic molecules.
The quenching by cytochrome c was not displaced by sequential additions of bovine serum albumin (500 μg/ml) (FIG. 23C, A+arrows).
SS-36 also contains the polarity-sensitive fluorescent amino acid aladan.

[5] = Fluorescence spectroscopy of peptide interaction with cardiolipin; assay type: binding; conditions: peptide 1 μM, CL 5-50 μg/ml
Excerpt: The peptides Dmt-D-Arg-(atn)Dap-Lys-NH2 (SS-19) and Dmt-D-Arg-Phe-Lys-Ald-NH2 (SS-37)cationic peptides carry net positive charge at neutral pH. They are expected to associate with anionic phospholipid cardiolipin based on electrostatic interaction. The interaction of small peptides with lipid membranes can been studied using fluorescence spectroscopy (Surewicz and Epand, 1984). […] Polarity-sensitive fluorescent probes were incorporated into the peptides and fluorescence spectroscopy was used to determine if SS-19, SS-37 and SS-36 interact with CL.
The peptide Dmt-D-Arg-Phe-(atn)Dap-NH2 (SS-19) contains anthraniloyl incorporated into diaminopropionic acid. Anthraniloyl derivatives fluoresce in the 410-420 nm range when excited at 320-330 nm (Hiratsuka T, 1983). The quantum yield of anthraniloyl derivatives is strongly dependent on the local environment, and can increase 5-fold going from water to 80% ethanol, together with a blue shift in the emission maxima (λ max) of <10 nm (Hiratsuka T, 1983). Fluorescence emission spectrum of SS-19 (1 μM) alone, and in the presence of increasing concentrations of CL (5 to 50 μg/ml), was monitored following excitation at 320 nm using Hitachi F-4500 fluorescence spectrophotometer.
The peptide Dmt-D-Arg-Phe-Lys-Ald-NH2 (SS-37) contains an additional amino acid, aladan (Ald), which has been reported to be particularly sensitive to the polarity of its environment and it has been used to probe the electrostatic character of proteins (Cohen et al., 2002). When excited at 350 nm, λmax shifts from 542 nm in water to 409 nm in heptane, accompanied by a significant increase in quantal yield (Cohen et al., 2001). Fluorescence emission spectrum of SS-37 (1 μM) alone, and in the presence of increasing concentrations of CL, was monitored following excitation at 350 nm. Addition of CL (5 to 50 μg/ml) led to a 3-fold increase in quantal yield of SS-37 as well as a clear blue shift in λmax, from 525 nm without CL to 500 nm with 50 μg/ml CL (FIG. 21B).
The peptide Dmt-D-Arg-Ald-Lys-NH2 (SS-36) contains Ald in place Phe^3. Fluorescence emission spectrum of SS-36 (1 μM) alone, and in the presence of increasing concentrations of CL, was monitored following excitation at 350 nm. SS-36 was the most sensitive to the addition of CL, with dramatic increase in quantal yield and blue shift observed with much lower added amounts of CL (1.25 to 5 μg/ml). The λmax shifted from 525 nm without CL to 500 nm with as little as 1.25 μg/ml CL, and quantal yield increased by more than 100-fold with the addition of 5 μg/ml of CL (FIG. 21C).

[6] = target: heme environment of cytochrome c (with CL) (Homo sapiens, UniProt P99999); assay: Soret CD spectrum of cyt C in the presence of CL; assay type: binding; conditions: cyt C 10 μM; CL 30 μg/ml; peptide 10 μM; 20 mM HEPES pH 7.5, 25° C.; FIG. 24
Chain of heme environment of cytochrome c (with CL) (P99999 2-105 limits assumed, species assumed): as the sequence (P99999 2-105 limits assumed, species assumed, one chain of several) above
Description: Circular dichroism (CD) was carried out to examine the effects of the peptides on protecting the heme environment of cyt C from the acyl chain of CL. For heme proteins, the Soret CD spectrum is strictly correlated with the heme pocket conformation. In particular, the negative 416-420 nm Cotton effect is considered diagnostic of Fe(III)-Met80 coordination in native cyt C (Santucci and Ascoli, 1997). […] CD spectra were obtained using AVIV CD Spectrometer Model 410.
Changes in the Soret CD spectrum of cyt C (10 μM) were recorded in the absence (dotted line) and presence (dashed line) of 30 μg/ml CL, plus addition of different peptides (10 μM) (solid line) (FIG. 24). CD measurements were carried out using 20 mM HEPES, pH 7.5, at 25° C. and expressed as molar ellipticity (θ) (m Deg).

cytochrome c-CL complex [7] = target: T1, cytochrome c-CL complex; assay: Cytochrome c/CL peroxidase activity (amplex red); assay type: biochemical; conditions: figure legend FIG. 29A-C; comparison at a fixed concentration of 10 μM (FIG. 29C)
Excerpt: The six coordination of the heme in cytochrome c prevents direct interaction of H2O2 with the catalytic metal site, and native cytochrome c in solution is a poor peroxidase. Upon interaction with CL, cytochrome c undergoes a structural change with rupture of the Fe-Met80 coordination. […] The mechanism of action of cytochrome c peroxidase is similar to that of other peroxidases, such as horse radish peroxidase (HRP). Thus it is possible to use the amplex red-HRP reaction to investigate cytochrome c peroxidase activity. In the presence of peroxidase, amplex red (AR) reacts with H2O2 to form the red-fluorescent oxidation product, resorufin (Ex/Em=571/585).
Cytochrome c (2 μM) was mixed with CL (25 μg/ml) and 10 μM H2O2 in 20 mM HEPES, pH 7.4. Amplex red (50 μM) was then added and fluorescence emission monitored in real time using Hitachi F4500 fluorescence spectrophotometer. Addition of amplex red elicited rapid increase in fluorescence signal due to resorufin formation, providing direct evidence for peroxidase activity of cytochrome c/CL complex (FIG. 29A).

With D-Arg-2′6′-Dmt-Tyr-Lys-Phe-NH2 the lipid peroxidation [1] was “inhibit lipid peroxidation”, the neutralizing reactive species [1] was “can neutralize H2O2, hydroxyl radical, and peroxynitrite” and the “efficacy in animal models” value [2] was “remarkable efficacy”.
For Dmt-D-Arg-Phe-(atn)Dap-NH2 [SS-19], the “quenching of peptide fluorescence by cytochrome c-depleted mitoplasts” value ([3]; mitoplasts 0.4 mg, FIG. 22B) was “significantly reduced”, the “peptide fluorescence on addition of mitochondria” value ([3]; peptide 10 μM, sequential addition of 0.2 mg mitochondria, FIG. 22A) was “quenched” and the “displacement of cytochrome c quenching by bovine serum albumin” value (cytochrome c; BSA 500 μg/ml, FIG. 22C) was “not displaced”. For the same substance, the “dependence of interaction on amount of cytochrome c” value (cytochrome c; FIG. 22D) was “linearly dependent on the amount of cytochrome c added”, the “peptide fluorescence on addition of cytochrome c” value (cytochrome c; peptide 10 μM, 2 μM cytochrome c, no CL) was “similarly quenched; also recorded: immediate quenching of the fluorescence signal” and the “peptide fluorescence on addition of cytochrome c in the presence of CL” value (cytochrome c-CL complex [4]; 2 μM cytochrome c) was “larger extent of quenching of SS-19 fluorescence”. For the same substance, the “peptide fluorescence on addition of CL” value (cytochrome c-CL complex [4]; FIG. 23B) was “increase in SS-19 fluorescence”, the “increase in quantal yield of peptide fluorescence” value [5] was 2 fold and the “shift in λmax on addition of CL” value ([5]; excitation 320 nm) was “no significant shift in λmax”. For the same substance, the “disappearance of the negative Cotton effect caused by CL (heme environment of cytochrome c)” value [6] was “Protect the Heme Environment of Cytochrome C from the Acyl Chain of CL” and the “peroxidase activity in cytochrome c/CL complex” value (cytochrome c-CL complex [7]) was “preventing peroxidase activity in cytochrome c/CL complex”.
